Experiments:
[1] = tested on: Human immunodeficiency virus 1; experiment: Antiviral activity against Human immunodeficiency virus 1 NLAD-8 infected in human PM1 cells expressing CCR5 assessed as reduction in virus-induced cytopathogenicity measured after 5 days by MTT assay; type: functional, organism-based; conditions: Human immunodeficiency virus 1, NLAD-8, PM1, 120 h
[2] = Cytotoxicity against Human immunodeficiency virus 1 NL4-3 infected in human MT4 cells assessed as reduction in cell viability measured after 5 days by MTT assay; type: cell-based; conditions: MT4 cells infected with HIV-1 NL4-3, time 5 day
[3] = tested on: Human immunodeficiency virus 1; experiment: Antiviral activity against Human immunodeficiency virus 1 NL4-3 infected in human MT4 cells assessed as reduction in virus-induced cytopathogenicity measured after 5 days by MTT assay; type: functional, organism-based; conditions: Human immunodeficiency virus 1, NL4-3, MT4, 120 h
[4] = Cytotoxicity against Human immunodeficiency virus 1 NLAD8 infected in human PM1 cells expressing CCR5 assessed as cell viability measured after 5 days by MTT assay; type: cell-based; conditions: PM1 cells expressing CCR5 infected with HIV-1 NLAD8, time 5 day

| SMILES | EC50 [1] [µM] | CC50 at 120 h [2] [µM] | EC50 [3] [µM] | CC50 at 120 h [4] [µM] |
| --- | --- | --- | --- | --- |
| CC[C@H](C)[C@H](NC(C)=O)C(=O)N[C@H](C(=O)N[C@@H](CCCNC(=N)N)C(=O)N[C@@H](CCSC)C(=O)N[C@@H](Cc1ccc(O)cc1)C(=O)N[C@@H](CO)C(=O)N1CCC[C@H]1C(=O)N[C@H](C(=O)N[C@@H](CC(F)(F)P(=O)(O)O)C(=O)N[C@H](C(=O)N[C@@H](CC(C)C)C(=O)N[C@@H](CC(=O)O)C(=O)N[C@H](C(=O)N[C@@H](CCCNC(=N)N)C(=O)N[C@@H](CCC(N)=O)C(=O)NCC(=O)N[C@@H](CSCC(=O)N[C@@H](CCCNC(=N)N)C(=O)N[C@@H](CCCNC(=N)N)C(=O)N[C@@H](CCCNC(=N)N)C(=O)N[C@@H](CCCNC(=N)N)C(=O)N[C@@H](CCCNC(=N)N)C(=O)N[C@@H](CCCNC(=N)N)C(=O)N[C@@H](CCCNC(=N)N)C(=O)N[C@@H](CCCNC(=N)N)C(N)=O)C(N)=O)[C@@H](C)CC)[C@@H](C)CC)[C@@H](C)O)C(C)C | > 50 | > 50 | > 50 | > 50 |
| COC[C@@H](c1ccc(C(F)(F)F)cc1)N1CCN(C2(C)CCN(C(=O)c3c(C)ncnc3C)CC2)C[C@@H]1C [VICRIVIROC] | 0.014 | > 5 | > 5 | > 5 |
| c1cc(CN2CCCNCCNCCCNCC2)ccc1CN1CCCNCCNCCCNCC1 [PLERIXAFOR] | > 50 | > 50 | 0.035 | > 50 |
| CC[C@H](C)[C@H](NC(C)=O)C(=O)N[C@H](C(=O)N[C@@H](CCCNC(=N)N)C(=O)N[C@@H](CCSC)C(=O)N[C@@H](Cc1ccc(O)cc1)C(=O)N[C@@H](CO)C(=O)N1CCC[C@H]1C(=O)N[C@H](C(=O)N[C@@H](CCC(=O)O)C(=O)N[C@H](C(=O)N[C@@H](CC(C)C)C(=O)N[C@@H](CC(=O)O)C(=O)N[C@H](C(=O)N[C@@H](CCCNC(=N)N)C(=O)N[C@@H](CCC(N)=O)C(=O)NCC(=O)N[C@@H](CSCC(=O)N[C@@H](CCCNC(=N)N)C(=O)N[C@@H](CCCNC(=N)N)C(=O)N[C@@H](CCCNC(=N)N)C(=O)N[C@@H](CCCNC(=N)N)C(=O)N[C@@H](CCCNC(=N)N)C(=O)N[C@@H](CCCNC(=N)N)C(=O)N[C@@H](CCCNC(=N)N)C(=O)N[C@@H](CCCNC(=N)N)C(N)=O)C(N)=O)[C@@H](C)CC)[C@@H](C)CC)[C@@H](C)O)C(C)C | > 50 | 31 | > 31 | > 50 |
| CC[C@H](C)[C@H](NC(C)=O)C(=O)N[C@H](C(=O)N[C@@H](CCCNC(=N)N)C(=O)N[C@@H](CCSC)C(=O)N[C@@H](Cc1ccc(O)cc1)C(=O)N[C@@H](CO)C(=O)N1CCC[C@H]1C(=O)N[C@H](C(=O)N[C@@H](COP(=O)(O)O)C(=O)N[C@H](C(=O)N[C@@H](CC(C)C)C(=O)N[C@@H](CC(=O)O)C(=O)N[C@H](C(=O)N[C@@H](CCCNC(=N)N)C(=O)N[C@@H](CCC(N)=O)C(=O)NCC(=O)N[C@@H](CSCC(=O)N[C@@H](CCCNC(=N)N)C(=O)N[C@@H](CCCNC(=N)N)C(=O)N[C@@H](CCCNC(=N)N)C(=O)N[C@@H](CCCNC(=N)N)C(=O)N[C@@H](CCCNC(=N)N)C(=O)N[C@@H](CCCNC(=N)N)C(=O)N[C@@H](CCCNC(=N)N)C(=O)N[C@@H](CCCNC(=N)N)C(N)=O)C(N)=O)[C@@H](C)CC)[C@@H](C)CC)[C@@H](C)O)C(C)C | > 50 | 44 | > 44 | > 50 |
| Cc1cn([C@H]2C[C@H](N=[N+]=[N-])[C@@H](CO)O2)c(=O)[nH]c1=O [ZIDOVUDINE] | 0.3 | > 50 | 0.043 | > 100 |
| CC[C@H](C)[C@H](NC(C)=O)C(=O)N[C@H](C(=O)N[C@@H](CCCNC(=N)N)C(=O)N[C@@H](CCSC)C(=O)N[C@@H](Cc1ccc(O)cc1)C(=O)N[C@@H](CO)C(=O)N1CCC[C@H]1C(=O)N[C@H](C(=O)N[C@@H](CO)C(=O)N[C@H](C(=O)N[C@@H](CC(C)C)C(=O)N[C@@H](CC(=O)O)C(=O)N[C@H](C(=O)N[C@@H](CCCNC(=N)N)C(=O)N[C@@H](CCC(N)=O)C(=O)NCC(=O)N[C@@H](CSCC(=O)N[C@@H](CCCNC(=N)N)C(=O)N[C@@H](CCCNC(=N)N)C(=O)N[C@@H](CCCNC(=N)N)C(=O)N[C@@H](CCCNC(=N)N)C(=O)N[C@@H](CCCNC(=N)N)C(=O)N[C@@H](CCCNC(=N)N)C(=O)N[C@@H](CCCNC(=N)N)C(=O)N[C@@H](CCCNC(=N)N)C(N)=O)C(N)=O)[C@@H](C)CC)[C@@H](C)CC)[C@@H](C)O)C(C)C | 1.2 | 9.3 | 4.6 | 18 |

Reference: ChEMBL document CHEMBL4725225, “Exploratory studies on CA-15L, an anti-HIV active HIV-1 capsid fragment” (Bioorg Med Chem, 2020)
